Laboratory results reported in patent publication US9085786B2, “Process for the production of polyamines” (BASF SE, priority 2009, dated 2015).

T1: AOX (alcohol oxidase) (Komagataella phaffii, UniProt P04842)
T1 sequence (P04842 1-663): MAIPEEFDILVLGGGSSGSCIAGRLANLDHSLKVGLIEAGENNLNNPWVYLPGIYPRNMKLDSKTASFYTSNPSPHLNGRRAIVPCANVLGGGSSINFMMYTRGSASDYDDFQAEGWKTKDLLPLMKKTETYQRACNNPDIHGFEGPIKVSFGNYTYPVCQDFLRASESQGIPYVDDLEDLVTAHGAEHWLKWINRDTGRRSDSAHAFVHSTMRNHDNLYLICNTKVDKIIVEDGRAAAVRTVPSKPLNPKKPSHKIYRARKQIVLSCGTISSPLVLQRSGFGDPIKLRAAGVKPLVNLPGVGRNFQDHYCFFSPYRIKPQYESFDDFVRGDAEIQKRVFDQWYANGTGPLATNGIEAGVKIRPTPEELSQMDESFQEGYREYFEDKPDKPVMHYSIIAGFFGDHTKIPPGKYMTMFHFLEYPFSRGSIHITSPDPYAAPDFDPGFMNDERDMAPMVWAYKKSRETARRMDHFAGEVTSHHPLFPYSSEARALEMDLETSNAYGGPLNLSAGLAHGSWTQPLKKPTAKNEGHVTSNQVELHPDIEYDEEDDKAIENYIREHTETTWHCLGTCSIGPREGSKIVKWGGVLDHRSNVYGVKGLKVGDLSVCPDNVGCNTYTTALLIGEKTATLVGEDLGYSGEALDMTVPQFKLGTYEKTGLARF

B1: AOX (alcohol oxidase) (Komagataella phaffii GS115) (protein)
chain: MAIPEEFDILVLGGGSSGSCIAGRLANLDHSLKVGLIEAGENNLNNPWVYLPGIYPRNMKLDSKTASFYTSNPSPHLNGRRAIVPCANVLGGGSSINFMMYTRGSASDYDDFQAEGWKTKDLLPLMKKTETYQRACNNPDIHGFEGPIKVSFGNYTYPVCQDFLRASESQGIPYVDDLEDLVTAHGAEHWLKWINRDTGRRSDSAHAFVHSTMRNHDNLYLICNTKVDKIIVEDGRAAAVRTVPSKPLNPKKPSHKIYRARKQIVLSCGTISSPLVLQRSGFGDPIKLRAAGVKPLVNLPGVGRNFQDHYCFFSPYRIKPQYESFDDFVRGDAEIQKRVFDQWYANGTGPLATNGIEAGVKIRPTPEELSQMDESFQEGYREYFEDKPDKPVMHYSIIAGFFGDHTKIPPGKYMTMFHFLEYPFSRGSIHITSPDPYAAPDFDPGFMNDERDMAPMVWAYKKSRETARRMDHFAGEVTSHHPLFPYSSEARALEMDLETSNAYGGPLNLSAGLAHGSWTQPLKKPTAKNEGHVTSNQVELHPDIEYDEEDDKAIENYIREHTETTWHCLGTCSIGPREGSKIVKWGGVLDHRSNVYGVKGLKVGDLSVCPDNVGCNTYTTALLIGEKTATLVGEDLGYSGEALDMTVPQFKLGTYEKTGLARF

Experiments:
AOX (alcohol oxidase) = biological target: T1, AOX (alcohol oxidase); format: biochemical; details: for Relative activity / Vmax: pH 7.0, 100 mM MOPS-buffer; for Relative activity: ethanol = 100; for Vmax: compound as substrate
Text: In the AOX approach cofactor regeneration is not required. The reaction is further driven by the Catalase-catalyzed decomposition of hydrogen peroxide. […]
The enzyme was obtained from commercially available from Sigma Aldrich.
Reaction followed […] preference of one enantiomer over the other as substrate, as defined by the division of the specificity constants. The specificity constant is defined as kcat/Km.

[1] = test system: HLADH (Horse Liver Alcohol Dehydrogenase); experiment: Kinetic constants for HLADH, spectrophotometric assay of NADH formation at 340 nm; format: biochemical, Equus caballus; details: for Vmax / Relative activity / Km: pH 9.1, 100 mM CHES-buffer; for Vmax / Km: compound as substrate; for Relative activity: ethanol = 100; for E-value: pH 9.1, preference of one enantiomer over the other, ratio of specificity constants kcat/Km
Text: In the HLADH approach cofactor regeneration is accomplished by the use of vinyl acetate. Vinyl acetate rapidly hydrolyzes at pH 9.1, decomposing into acetic acid and acetic aldehyde. The aldehyde can be reduced by HLADH into ethanol, thereby forming NAD^+ from NADH. Unreacted acetic aldehyde can be removed by bubbling N2 after deactivating the enzyme with EDTA or H2O2. For the alcohol dehydrogenase HLADH the reaction was spectrophotometrically followed by the formation of NADH at 340 nm. Different concentrations of the various amino alcohols were used to obtain the Michaelis-Menten kinetic constants.
This reaction was performed at pH 9.1. The enzyme was obtained from commercially available from Sigma Aldrich.
Reaction catalysed by HLADH was followed spectrophotometrically at 340 nm, by the formation of NADH.

[2] = substrate: CCO; experiment: purified protein, by the assay type; details: other: AOX, pH 7.0, 100 mM MOPS-buffer, compound as substrate

Row | Molecule | Relative activity (AOX (alcohol oxidase)) [%] | Vmax [1] [µmol/min/mg] | Relative activity [1] [%] | Catalysis of the reaction and appearance of aldehyde (AOX (alcohol oxidase); ABTS replaced by pyrogallol or purpald, rates not reproducible) | Vmax (AOX (alcohol oxidase)) | Km [1] [mM] | E-value [1] | E-value (AOX (alcohol oxidase); pH 7.0, preference of one enantiomer over the other, ratio of specificity constants kcat/Km) | Km [2] [mM] | Vmax [2] [µmol/min/mg]
1 | CC(O)CN (racemic) [1-Amino-propan-2-ol (rac), 1-Amino-propan-2-ol] | 0 | 0 | 0 |  |  |  |  |  |  | 
2 | NCC(O)c1ccccc1 (stereo not drawn) [2-Amino-1-phenyl ethanol] |  |  |  | the enzyme was catalysing the reaction and the appearance of aldehyde |  |  |  |  |  | 
3 | NCCO [2-Amino-ethanol] | ~0 | <0.005 | ~0 |  | Very low |  |  |  |  | 
4 | NCCCO [3-Amino-propan-1-ol] | 0.18 | 0.17 | 11 |  | 0.021 µmol/min/mg | 13 |  |  |  | 
5 | CCO [Ethanol, reference compound] | 100 | 1.5 | 100 |  |  | 0.6 |  |  |  | 
6 | NC[C@H](O)c1ccccc1 [R-2-Amino-1-phenyl-ethanol] |  | <0.002 | ~0 |  |  |  | >100 |  |  | 
7 | C[C@@H](N)CO [R-2-Amino-propan-1-ol] | 0.88 | <0.0007 | ~0 |  | 0.10 µmol/min/mg |  | >300 | 3.6 |  | 
8 | NC[C@@H](O)c1ccccc1 [S-2-Amino-1-phenyl-ethanol] |  | 0.21 | 14 |  |  | 6.2 |  |  |  | 
9 | C[C@H](N)CO [S-2-Amino-propan-1-ol] | 3.2 | 0.21 | 14 |  | 0.37 µmol/min/mg | 6.3 |  |  |  | 
10 | B1 |  |  |  |  |  |  |  |  | 1.3 | 12
